Test results reported in patent US12692261B2, “Substituted heterocyclic compounds and therapeutic uses thereof” (Bayer Aktiengesellschaft, priority 2020, dated 2026).
Read-outs that look alike come from different tables or passages of the source.

Assays:
[1] = target: T1, wild-type Epidermal Growth Factor Receptor (EGFR) (Homo sapiens, UniProt P00533); assay: WT-EGFR Kinase Assay (TR-FRET, 2 mM ATP); assay type: biochemical
T1 construct: a fragment of human EGFR (amino acids R669 to A1210); made in house; host or cells: Sf9 insect cells
T1 sequence (P00533 669-1210): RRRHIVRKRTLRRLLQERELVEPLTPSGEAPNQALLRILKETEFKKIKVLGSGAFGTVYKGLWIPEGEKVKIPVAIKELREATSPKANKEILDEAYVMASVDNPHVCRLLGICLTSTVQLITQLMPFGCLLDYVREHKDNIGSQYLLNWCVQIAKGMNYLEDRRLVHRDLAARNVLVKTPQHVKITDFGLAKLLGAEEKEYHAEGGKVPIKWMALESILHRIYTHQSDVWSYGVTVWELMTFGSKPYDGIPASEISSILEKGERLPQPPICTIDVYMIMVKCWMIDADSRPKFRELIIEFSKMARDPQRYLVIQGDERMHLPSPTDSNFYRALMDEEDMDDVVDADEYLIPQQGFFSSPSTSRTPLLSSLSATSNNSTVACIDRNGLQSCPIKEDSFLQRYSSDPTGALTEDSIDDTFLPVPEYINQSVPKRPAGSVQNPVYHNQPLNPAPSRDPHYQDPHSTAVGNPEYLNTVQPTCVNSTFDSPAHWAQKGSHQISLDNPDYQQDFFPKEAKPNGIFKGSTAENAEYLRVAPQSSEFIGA
Description: Inhibitory activity of compounds of the present invention against wild-type Epidermal Growth Factor Receptor (EGFR) was quantified employing the TR-FRET based EGFR assay as described in the following paragraphs.
Recombinant fusion protein of N-terminal Glutathion-S-Transferase (GST) and a fragment of human EGFR (amino acids R669 to A1210), expressed in Sf9 insect cells and purified via affinity chromatography using Glutathion Sepharose as described above, was used as kinase. As substrate for the kinase reaction the biotinylated peptide biotin-Ahx-[…] (C-terminus in amide form) was used which can be purchased e.g. form the company Biosynthan GmbH (Berlin-Buch, Germany).
For the assay 50 nl of a 100 fold concentrated solution of the test compound in DMSO was pipetted into either a black low volume 384 well microtiter plate or a black 1536 well microtiter plate (both Greiner Bio-One, Frickenhausen, Germany), 2 μL of a solution of EGFR in aqueous assay buffer [50 mM Hepes pH 7.0, 10 mM MgCl2, 1 mM dithiothreitol, 0.5 mM EGTA, 0.3 mM activated sodium ortho-vanadate, 0.005% (w/v) bovine serum albumin, 0.005% (v/v) Tween-20] were added and the mixture was incubated for 15 min at 22° C. to allow pre-binding of the test compounds to the enzyme before the start of the kinase reaction. […] The concentration of EGFR was adjusted depending of the activity of the enzyme lot and was chosen appropriate to have the assay in the linear range, typical concentration was 7.6 pg/μL. The reaction was stopped by the addition of 3 μL of a solution of HTRF detection reagents (83.3 nM streptavidine-XL665 [Cisbio Bioassays, Codolet, France] and 1.67 nM PT66-Tb-Cryptate, a terbium-cryptate labelled anti-phospho-tyrosine antibody from Cisbio Bioassays [instead of the PT66-Tb-cryptate PT66-Eu-Chelate from Perkin Elmer can also be used]) in an aqueous EDTA-solution (133.3 mM EDTA, 0.2% (w/v) bovine serum albumin in 50 mM HEPES pH 7.5).
The resulting mixture was incubated 1 h at 22° C. to allow the binding of the biotinylated phosphorylated peptide to the streptavidine-XL665 and the PT66-Tb-Cryptate. Subsequently the amount of phosphorylated substrate was evaluated by measurement of the resonance energy transfer from the PT66-Tb-Cryptate to the streptavidine-XL665. Therefore, the fluorescence emissions at 620 nm and 665 nm after excitation at 337 nm were measured in a HTRF reader, e.g. a Pherastar (BMG Labtechnologies, Offenburg, Germany) or a Viewlux (Perkin-Elmer). The ratio of the emissions at 665 nm and at 622 nm was taken as the measure for the amount of phosphorylated substrate.

[2] = target: T2, full-length human CSNK1A1 (Homo sapiens, UniProt P48729); assay: CSNK1A1 Assay 2 (ADP-Glo, 1 μM ATP, substrate biotin-Ahx-KRRRAL-pS-VASLPGL); assay type: biochemical; details: Table 3, read-out: CSNK1A1 Assay 2 IC50 [mol/l] (median)
T2 construct: N-terminal Glutathion-S-Transferase (GST) and full-length human CSNK1A1; purchased Life Technologies PV4174; host or cells: baculovirus infected insect cells
T2 sequence (P48729 whole entry): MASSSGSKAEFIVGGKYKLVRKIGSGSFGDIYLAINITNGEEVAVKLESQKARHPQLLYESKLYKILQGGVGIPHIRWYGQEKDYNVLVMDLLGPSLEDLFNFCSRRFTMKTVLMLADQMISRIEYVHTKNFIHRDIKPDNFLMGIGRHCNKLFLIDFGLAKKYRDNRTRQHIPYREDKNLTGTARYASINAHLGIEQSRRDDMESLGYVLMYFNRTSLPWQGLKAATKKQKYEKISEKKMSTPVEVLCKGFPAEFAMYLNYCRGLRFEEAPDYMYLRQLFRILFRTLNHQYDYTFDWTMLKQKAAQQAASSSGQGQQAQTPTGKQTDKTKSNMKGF
Method in brief: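 Activity read as ADP generated (ADP-Glo luciferase luminescence, 1 h detection steps at 22 °C). Enzyme was insect-cell-expressed GST–full-length human CSNK1A1, compound-preincubated 15 min before reaction with phosphopeptide substrate and 1 μM ATP in 50 mM HEPES pH 7.5, 10 mM MgCl2.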

[3] = EGFR Wildtyp 2 mM ATP IC50 [mol/l] (median), Table 4
[4] = read-out: EGFR Wildtyp 2 mM ATP IC50 [mol/l] (median), Table 4

| Compound | IC50 [1, 3] [nM] | IC50 [2] [nM] | IC50 [1, 4] [nM] |
| --- | --- | --- | --- |
| O=C(Nc1cc(-c2[nH]c3c(Cl)ccnc3c2-c2ccccn2)ccn1)C(CC(F)F)c1ccc(F)cc1 (racemic) [Example 49, (2RS)—N-{4-[7-chloro-3-(pyridin-2-yl)-1H-pyrrolo[3,2-b]pyridin-2-yl]pyridin-2-yl}-4,4-difluoro-2-(4-fluorophenyl)butanamide] | > 20000 | 3.64 |  |
| O=C(Nc1cc(-c2[nH]c3ccc(F)nc3c2-c2cc(F)ccn2)ccn1)C(CC(F)F)c1ccc(F)cc1 (racemic) [Example 95, (2RS)-4,4-difluoro-N-{4-[5-fluoro-3-(4-fluoropyridin-2-yl)-1H-pyrrolo[3,2-b]pyridin-2-yl]pyridin-2-yl}-2-(4-fluorophenyl)butanamide] | > 20000 | 5.62 |  |
| CC(C)(O)c1cc(F)nc2c(-c3ccccn3)c(-c3ccnc(NC(=O)C(CC(F)F)c4ccc(F)cc4)c3)[nH]c12 (racemic) [Example 98, (2RS)-4,4-difluoro-N-{4-[5-fluoro-7-(2-hydroxypropan-2-yl)-3-(pyridin-2-yl)-1H-pyrrolo[3,2-b]pyridin-2-yl]pyridin-2-yl}-2-(4-fluorophenyl)butanamide] | > 20000 | 7.36 |  |
| O=C(Nc1cc(-c2[nH]c3cccnc3c2-c2ncccn2)ccn1)C(CC(F)F)c1ccc(F)cc1 (racemic) [Example 112, (2RS)-4,4-difluoro-2-(4-fluorophenyl)-N-[4-(3-pyrimidin-2-yl-1H-pyrrolo[3,2-b]pyridin-2-yl)-2-pyridyl]butanamide] | > 20000 | 10.1 |  |
| O=C(Nc1cc(-c2[nH]c3c(C4CCCO4)cc(F)nc3c2-c2ccccn2)ccn1)C(CC(F)F)c1ccc(F)cc1 (racemic) [Example 114, (2RS)-4,4-difluoro-2-(4-fluorophenyl)-N-(4-{5-fluoro-3-(pyridin-2-yl)-7-[(2RS)-tetrahydrofuran-2-yl]-1H-pyrrolo[3,2-b]pyridin-2-yl}pyridin-2-yl)butanamide] | > 20000 | 6.74 |  |
| O=C(Nc1cc(-c2[nH]c3nccnc3c2-c2ccccn2)ccn1)C(CC(F)(F)F)c1ccc(F)cc1 (racemic) [Example 119, (2RS)-4,4,4-trifluoro-2-(4-fluorophenyl)-N-{4-[7-(pyridin-2-yl)-5H-pyrrolo[2,3-b]pyrazin-6-yl]pyridin-2-yl}butanamide] | > 20000 | 2.71 |  |
| O=C(Nc1cc(-c2[nH]c3c(OCC(F)(F)F)ncnc3c2-c2ccccn2)ccn1)C(CC(F)F)c1ccc(F)cc1 (racemic) [Example 122, (2RS)-4,4-difluoro-2-(4-fluorophenyl)-N-{4-[7-(pyridin-2-yl)-4-(2,2,2-trifluoroethoxy)-5H-pyrrolo[3,2-d]pyrimidin-6-yl]pyridin-2-yl}butanamide] | > 20000 | 7.69 |  |
| O=C(Nc1cc(-c2[nH]c3c(OCC(F)(F)F)ncnc3c2-c2ccccn2)ccn1)C(CC(F)(F)F)c1ccc(F)cc1 (racemic) [Example 125, (2RS)-4,4,4-trifluoro-2-(4-fluorophenyl)-N-{4-[7-(pyridin-2-yl)-4-(2,2,2-trifluoroethoxy)-5H-pyrrolo[3,2-d]pyrimidin-6-yl]pyridin-2-yl}butanamide] | > 20000 | 14.8 |  |
| O=C(Nc1cc(-c2[nH]c3c(OCC4CC4)ncnc3c2-c2ccccn2)ccn1)C(CC(F)F)c1ccc(F)cc1 (racemic) [Example 128, (2RS)—N-{4-[4-(cyclopropylmethoxy)-7-(pyridin-2-yl)-5H-pyrrolo[3,2-d]pyrimidin-6-yl]pyridin-2-yl}-4,4-difluoro-2-(4-fluorophenyl)butanamide] | 11200 | 8.03 |  |
| O=C(Nc1cc(-c2[nH]c3ccc(F)nc3c2-c2ccccn2)ccn1)[C@H](CC(F)F)c1ccc(F)cc1 (single isomer, unassigned) [Example 3] | > 20000 | 9.21 |  |
| Cc1ccc2[nH]c(-c3ccnc(NC(=O)C(CC(F)F)c4ccc(F)cc4)c3)c(-c3ccccn3)c2n1 (single isomer, unassigned) [Example 5, 4,4-difluoro-2-(4-fluorophenyl)-N-{4-[5-methyl-3-(pyridin-2-yl)-1H-pyrrolo[3,2-b]pyridin-2-yl]pyridin-2-yl}butanamide] | > 20000 | 4.43 |  |
| Cc1ccc2[nH]c(-c3ccnc(NC(=O)C(CC(F)F)c4ccc(F)cc4)c3)c(-c3ccccn3)c2n1 (single isomer, unassigned) [Example 6, 4,4-difluoro-2-(4-fluorophenyl)-N-{4-[5-methyl-3-(pyridin-2-yl)-1H-pyrrolo[3,2-b]pyridin-2-yl]pyridin-2-yl}butanamide] |  | 68.2 | > 20000 |
| Cc1cnc2c(-c3ccccn3)c(-c3ccnc(NC(=O)C(CC(F)F)c4ccc(F)cc4)c3)[nH]c2c1 (single isomer, unassigned) [Example 8, 4,4-difluoro-2-(4-fluorophenyl)-N-{4-[6-methyl-3-(pyridin-2-yl)-1H-pyrrolo[3,2-b]pyridin-2-yl]pyridin-2-yl}butanamide] | > 20000 | 3.01 |  |
| Cc1cnc2c(-c3ccccn3)c(-c3ccnc(NC(=O)C(CC(F)F)c4ccc(F)cc4)c3)[nH]c2c1 (single isomer, unassigned) [Example 9, 4,4-difluoro-2-(4-fluorophenyl)-N-{4-[6-methyl-3-(pyridin-2-yl)-1H-pyrrolo[3,2-b]pyridin-2-yl]pyridin-2-yl}butanamide] |  | 15.8 | > 20000 |
| O=C(Nc1cc(-c2[nH]c3c(OCC(F)F)cc(F)nc3c2-c2ccccn2)ccn1)C(CC(F)F)c1ccc(F)cc1 (single isomer, unassigned) [Example 29, (2R or S)—N-{4-[7-(2,2-difluoroethoxy)-5-fluoro-3-(pyridin-2-yl)-1H-pyrrolo[3,2-b]pyridin-2-yl]pyridin-2-yl}-4,4-difluoro-2-(4-fluorophenyl)butanamide] | > 20000 | 3.31 |  |
| O=C(Nc1cc(-c2[nH]c3c(OCC(F)F)cc(F)nc3c2-c2ccccn2)ccn1)C(CC(F)F)c1ccc(F)cc1 (single isomer, unassigned) [Example 30, (2R or S)—N-{4-[7-(2,2-difluoroethoxy)-5-fluoro-3-(pyridin-2-yl)-1H-pyrrolo[3,2-b]pyridin-2-yl]pyridin-2-yl}-4,4-difluoro-2-(4-fluorophenyl)butanamide] |  | 8.84 | > 20000 |
| O=C(Nc1cc(-c2[nH]c3nccnc3c2-c2ccccn2)ccn1)[C@@H](CC(F)F)c1ccc(F)cc1 (single isomer, unassigned) [Example 32] | > 20000 | 1.37 |  |
| Cc1cc2[nH]c(-c3ccnc(NC(=O)C(CC(F)F)c4ccc(F)cc4)c3)c(-c3ccccn3)c2nc1F (single isomer, unassigned) [Example 34, 4,4-difluoro-N-{4-[5-fluoro-6-methyl-3-(pyridin-2-yl)-1H-pyrrolo[3,2-b]pyridin-2-yl]pyridin-2-yl}-2-(4-fluorophenyl)butanamide] | > 20000 | 3.79 |  |
| Cc1cc2[nH]c(-c3ccnc(NC(=O)C(CC(F)F)c4ccc(F)cc4)c3)c(-c3ccccn3)c2nc1F (single isomer, unassigned) [Example 35, 4,4-difluoro-N-{4-[5-fluoro-6-methyl-3-(pyridin-2-yl)-1H-pyrrolo[3,2-b]pyridin-2-yl]pyridin-2-yl}-2-(4-fluorophenyl)butanamide] |  | 2.69 | > 20000 |
| O=C(Nc1cc(-c2[nH]c3c(OC4CC4)cc(F)nc3c2-c2ccccn2)ccn1)C(CC(F)F)c1ccc(F)cc1 (single isomer, unassigned) [Example 43, N-{4-[7-(cyclopropyloxy)-5-fluoro-3-(pyridin-2-yl)-1H-pyrrolo[3,2-b]pyridin-2-yl]pyridin-2-yl}-4,4-difluoro-2-(4-fluorophenyl)butanamide] | > 20000 | 10.2 |  |
